Experimental data: ChEMBL document CHEMBL5291721, “A preclinical secondary pharmacology resource illuminates target-adverse drug reaction associations of marketed drugs” (Nat Commun, 2023)

What was measured:
[1] = target: T1, Cholecystokinin receptor type A (Homo sapiens, UniProt P32238)
T1 sequence (P32238 whole entry): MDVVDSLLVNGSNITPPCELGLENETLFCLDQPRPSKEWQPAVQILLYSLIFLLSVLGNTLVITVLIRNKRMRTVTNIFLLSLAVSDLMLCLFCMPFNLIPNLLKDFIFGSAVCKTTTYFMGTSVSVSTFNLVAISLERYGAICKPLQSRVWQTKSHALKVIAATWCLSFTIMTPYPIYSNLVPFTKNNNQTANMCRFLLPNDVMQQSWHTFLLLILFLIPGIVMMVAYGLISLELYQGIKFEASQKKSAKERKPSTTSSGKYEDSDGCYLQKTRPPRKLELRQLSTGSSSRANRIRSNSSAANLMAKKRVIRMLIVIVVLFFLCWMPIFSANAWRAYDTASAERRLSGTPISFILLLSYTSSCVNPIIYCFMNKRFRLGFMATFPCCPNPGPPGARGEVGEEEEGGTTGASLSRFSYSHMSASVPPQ

Motilin receptor = Motilin receptor (Homo sapiens, UniProt O43193)
[2] = target: cGMP-inhibited 3',5'-cyclic phosphodiesterase 3A (Homo sapiens, UniProt Q14432); format: functional
Thromboxane A2 receptor = target: T2, Thromboxane A2 receptor (Homo sapiens, UniProt P21731)
T2 sequence (P21731 whole entry): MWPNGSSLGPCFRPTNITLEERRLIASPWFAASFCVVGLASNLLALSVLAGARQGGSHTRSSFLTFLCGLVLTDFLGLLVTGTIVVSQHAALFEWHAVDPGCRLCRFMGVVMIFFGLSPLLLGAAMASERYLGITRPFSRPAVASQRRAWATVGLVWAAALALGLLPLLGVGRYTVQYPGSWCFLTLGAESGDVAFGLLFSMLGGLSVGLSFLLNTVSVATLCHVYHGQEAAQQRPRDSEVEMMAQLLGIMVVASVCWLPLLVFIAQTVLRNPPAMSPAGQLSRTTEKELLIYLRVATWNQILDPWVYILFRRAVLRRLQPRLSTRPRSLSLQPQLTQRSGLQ

[3] = target: T3, Alpha-2B adrenergic receptor (Homo sapiens, UniProt P18089)
T3 sequence (P18089 whole entry): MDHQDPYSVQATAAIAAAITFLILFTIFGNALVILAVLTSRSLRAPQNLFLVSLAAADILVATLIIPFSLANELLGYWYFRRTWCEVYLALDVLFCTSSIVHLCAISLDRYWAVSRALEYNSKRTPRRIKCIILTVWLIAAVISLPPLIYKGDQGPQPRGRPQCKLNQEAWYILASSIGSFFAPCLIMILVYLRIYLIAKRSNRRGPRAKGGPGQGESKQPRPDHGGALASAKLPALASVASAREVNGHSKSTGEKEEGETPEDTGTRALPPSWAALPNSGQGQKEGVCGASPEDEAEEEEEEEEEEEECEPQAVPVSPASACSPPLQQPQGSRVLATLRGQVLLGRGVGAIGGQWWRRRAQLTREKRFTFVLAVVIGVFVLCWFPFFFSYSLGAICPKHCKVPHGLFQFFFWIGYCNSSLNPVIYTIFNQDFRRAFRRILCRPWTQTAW

[4] = target: T4, Alpha-2C adrenergic receptor (Homo sapiens, UniProt P18825); format: functional
T4 sequence (P18825 whole entry): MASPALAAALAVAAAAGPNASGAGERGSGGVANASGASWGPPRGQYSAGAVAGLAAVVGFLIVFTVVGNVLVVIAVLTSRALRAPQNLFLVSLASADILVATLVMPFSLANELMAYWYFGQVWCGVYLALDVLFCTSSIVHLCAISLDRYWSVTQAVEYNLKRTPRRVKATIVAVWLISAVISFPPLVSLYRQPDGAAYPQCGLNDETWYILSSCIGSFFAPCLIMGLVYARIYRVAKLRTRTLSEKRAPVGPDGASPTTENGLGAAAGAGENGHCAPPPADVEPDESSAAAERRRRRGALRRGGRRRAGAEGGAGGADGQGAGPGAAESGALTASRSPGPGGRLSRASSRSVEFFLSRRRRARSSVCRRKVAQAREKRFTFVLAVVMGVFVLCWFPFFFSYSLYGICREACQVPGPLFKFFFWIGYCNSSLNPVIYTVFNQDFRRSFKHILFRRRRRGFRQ

[5] = target: Gamma-aminobutyric acid receptor subunit alpha-1 (Rattus norvegicus, UniProt P62813); format: functional
[6] = target: T5, 5-hydroxytryptamine receptor 2C (Homo sapiens, UniProt P28335)
T5 sequence (P28335 whole entry): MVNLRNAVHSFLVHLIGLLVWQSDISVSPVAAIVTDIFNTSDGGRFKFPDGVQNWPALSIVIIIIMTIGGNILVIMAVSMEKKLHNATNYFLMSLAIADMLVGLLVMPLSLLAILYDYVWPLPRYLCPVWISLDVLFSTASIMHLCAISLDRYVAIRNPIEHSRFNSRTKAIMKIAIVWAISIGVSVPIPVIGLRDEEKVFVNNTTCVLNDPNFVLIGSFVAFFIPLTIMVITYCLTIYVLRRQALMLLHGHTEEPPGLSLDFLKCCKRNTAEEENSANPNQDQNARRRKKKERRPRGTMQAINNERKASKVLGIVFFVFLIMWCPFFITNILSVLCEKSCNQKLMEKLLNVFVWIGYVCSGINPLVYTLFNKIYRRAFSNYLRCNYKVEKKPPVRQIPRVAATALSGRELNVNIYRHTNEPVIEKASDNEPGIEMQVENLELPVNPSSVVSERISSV

Mu-type opioid receptor = Mu-type opioid receptor (Homo sapiens, UniProt P35372); assay: biochemical; format: functional
Further: assay procedure not described here.

Sequence of Gamma-aminobutyric acid receptor subunit alpha-1 (P62813 whole entry): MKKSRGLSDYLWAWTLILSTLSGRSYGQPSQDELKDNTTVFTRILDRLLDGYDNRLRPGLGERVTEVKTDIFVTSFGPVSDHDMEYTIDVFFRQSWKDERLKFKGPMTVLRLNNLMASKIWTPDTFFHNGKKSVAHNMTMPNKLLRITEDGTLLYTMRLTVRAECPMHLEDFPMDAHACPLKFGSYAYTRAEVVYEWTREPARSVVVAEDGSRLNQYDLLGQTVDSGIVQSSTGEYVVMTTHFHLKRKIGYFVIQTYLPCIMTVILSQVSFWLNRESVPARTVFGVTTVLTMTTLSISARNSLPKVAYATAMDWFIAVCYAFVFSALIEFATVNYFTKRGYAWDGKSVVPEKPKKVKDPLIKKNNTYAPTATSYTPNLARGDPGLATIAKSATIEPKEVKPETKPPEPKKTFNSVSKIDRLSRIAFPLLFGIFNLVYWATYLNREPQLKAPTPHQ
Sequence of Motilin receptor (O43193 whole entry): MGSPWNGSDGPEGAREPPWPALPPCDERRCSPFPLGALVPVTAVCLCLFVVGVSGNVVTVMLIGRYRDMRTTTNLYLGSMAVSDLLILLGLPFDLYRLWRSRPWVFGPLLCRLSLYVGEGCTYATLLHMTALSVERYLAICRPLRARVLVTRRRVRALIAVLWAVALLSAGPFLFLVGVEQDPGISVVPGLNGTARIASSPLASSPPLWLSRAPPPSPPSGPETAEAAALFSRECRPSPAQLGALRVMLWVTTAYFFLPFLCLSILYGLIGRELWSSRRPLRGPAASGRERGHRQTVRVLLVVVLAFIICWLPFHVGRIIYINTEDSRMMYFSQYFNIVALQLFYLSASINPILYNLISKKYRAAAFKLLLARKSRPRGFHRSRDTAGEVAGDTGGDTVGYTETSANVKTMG
Sequence of cGMP-inhibited 3',5'-cyclic phosphodiesterase 3A (Q14432 whole entry): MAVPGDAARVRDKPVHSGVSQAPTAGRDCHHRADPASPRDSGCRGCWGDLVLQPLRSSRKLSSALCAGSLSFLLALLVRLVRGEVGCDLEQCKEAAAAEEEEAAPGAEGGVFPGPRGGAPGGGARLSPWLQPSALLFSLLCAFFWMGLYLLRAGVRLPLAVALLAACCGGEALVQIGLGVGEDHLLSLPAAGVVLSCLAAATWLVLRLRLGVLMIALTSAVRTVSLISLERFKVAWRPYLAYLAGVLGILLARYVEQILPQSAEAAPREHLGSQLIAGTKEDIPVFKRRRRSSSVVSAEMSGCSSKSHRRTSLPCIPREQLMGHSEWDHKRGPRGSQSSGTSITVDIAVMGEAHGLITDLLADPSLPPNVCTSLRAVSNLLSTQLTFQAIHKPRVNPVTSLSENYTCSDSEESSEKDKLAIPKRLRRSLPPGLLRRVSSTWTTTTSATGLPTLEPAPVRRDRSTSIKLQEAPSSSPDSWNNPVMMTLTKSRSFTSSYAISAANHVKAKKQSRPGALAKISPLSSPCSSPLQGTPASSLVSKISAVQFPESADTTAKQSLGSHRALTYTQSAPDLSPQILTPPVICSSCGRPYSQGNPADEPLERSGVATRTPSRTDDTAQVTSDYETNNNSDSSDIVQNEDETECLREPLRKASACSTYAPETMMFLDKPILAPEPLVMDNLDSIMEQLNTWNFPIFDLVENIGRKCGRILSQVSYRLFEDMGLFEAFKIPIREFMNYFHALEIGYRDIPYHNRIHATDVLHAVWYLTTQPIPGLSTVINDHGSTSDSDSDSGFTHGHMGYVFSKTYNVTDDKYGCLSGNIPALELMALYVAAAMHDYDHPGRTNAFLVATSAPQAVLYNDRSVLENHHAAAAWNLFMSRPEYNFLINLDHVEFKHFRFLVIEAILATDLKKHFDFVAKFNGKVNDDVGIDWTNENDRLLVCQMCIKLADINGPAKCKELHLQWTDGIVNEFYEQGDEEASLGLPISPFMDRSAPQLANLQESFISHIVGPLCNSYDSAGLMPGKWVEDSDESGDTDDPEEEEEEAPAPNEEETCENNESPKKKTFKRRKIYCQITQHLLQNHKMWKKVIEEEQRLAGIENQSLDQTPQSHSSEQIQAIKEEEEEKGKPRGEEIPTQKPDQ
Sequence of Mu-type opioid receptor (P35372 whole entry): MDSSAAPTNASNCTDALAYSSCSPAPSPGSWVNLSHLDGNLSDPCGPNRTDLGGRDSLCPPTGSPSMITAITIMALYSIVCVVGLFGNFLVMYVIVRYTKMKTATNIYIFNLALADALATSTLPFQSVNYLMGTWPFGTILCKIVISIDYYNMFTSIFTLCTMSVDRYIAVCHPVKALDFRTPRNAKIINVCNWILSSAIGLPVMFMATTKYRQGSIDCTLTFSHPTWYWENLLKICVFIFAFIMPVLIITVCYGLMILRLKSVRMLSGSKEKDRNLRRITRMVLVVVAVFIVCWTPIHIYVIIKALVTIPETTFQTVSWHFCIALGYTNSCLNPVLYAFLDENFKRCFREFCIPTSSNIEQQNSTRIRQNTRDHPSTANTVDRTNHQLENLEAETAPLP

Row | Compound | AC50 [1] | AC50 (Motilin receptor) | AC50 [2] | AC50 (Thromboxane A2 receptor) | AC50 [3] | AC50 [4] | AC50 [5] | AC50 [6] | AC50 (Mu-type opioid receptor)
1 | CN(C)Cc1nnc2n1-c1ccc(Cl)cc1C(c1ccccc1)=NC2 [ADINAZOLAM] | > 10 µM | > 10 µM | > 30 µM | > 10 µM | > 10 µM | > 10 µM | 0.19 µM | > 30 µM | –
2 | CN(C)C/C=C/C(=O)Nc1cc2c(Nc3ccc(F)c(Cl)c3)ncnc2cc1O[C@H]1CCOC1 [AFATINIB] | 11 µM | > 30 µM | > 30 µM | – | 0.87 µM | > 30 µM | > 30 µM | > 30 µM | > 30 µM
3 | Cc1ccccc1-n1c(CF)nc2ccc(N)cc2c1=O [AFLOQUALONE] | > 30 µM | > 30 µM | > 30 µM | > 30 µM | > 10 µM | > 10 µM | > 10 µM | > 30 µM | > 30 µM
4 | CC1=C(C(=O)OC(C)C)C(c2cccc([N+](=O)[O-])c2)C(C(=O)OC2CN(C(c3ccccc3)c3ccccc3)C2)=C(N)N1 (centres undefined) [AZELNIDIPINE] | > 30 µM | 16 µM | > 30 µM | > 30 µM | > 30 µM | 13 µM | > 30 µM | > 30 µM | > 30 µM
5 | O=C(/C=C/c1cccc(S(=O)(=O)Nc2ccccc2)c1)NO [BELINOSTAT] | > 30 µM | > 10 µM | > 30 µM | > 30 µM | > 10 µM | > 10 µM | > 10 µM | > 30 µM | –
6 | C/C=C(/C(=C/C)c1ccc(O)cc1)c1ccc(O)cc1 [DIENESTROL] | > 10 µM | > 10 µM | > 30 µM | > 10 µM | > 10 µM | > 10 µM | > 10 µM | > 30 µM | > 30 µM
7 | C[C@@H]1C[C@H]2[C@@H]3C[C@H](F)C4=CC(=O)C=C[C@]4(C)[C@@]3(F)[C@@H](O)C[C@]2(C)[C@@]1(OC(=O)c1ccco1)C(=O)SCF [FLUTICASONE FUROATE] | > 10 µM | > 10 µM | > 30 µM | > 10 µM | > 10 µM | > 10 µM | > 10 µM | > 30 µM | –
8 | COc1ccc([C@@H]2CC(=O)c3c(O)cc(O)cc3O2)cc1O [HESPERETIN] | > 10 µM | > 10 µM | 21 µM | > 10 µM | > 10 µM | > 10 µM | > 10 µM | > 30 µM | > 30 µM
9 | CNCCc1ccc(OC(=O)C(C)C)c(OC(=O)C(C)C)c1 [IBOPAMINE] | > 30 µM | > 30 µM | > 30 µM | > 30 µM | > 30 µM | 8.4 µM | > 30 µM | > 30 µM | > 30 µM
10 | CN(C)CCCN1c2ccccc2CCc2ccccc21 [IMIPRAMINE] | > 30 µM | > 10 µM | > 10 µM | > 30 µM | 0.32 µM | 2.1 µM | > 10 µM | 0.13 µM | 28 µM
11 | COC(=O)C1=C(C)NC(C)=C(C(=O)OCCN2CCN(C(c3ccccc3)c3ccccc3)CC2)C1c1cccc([N+](=O)[O-])c1 (centres undefined) [MANIDIPINE 6300] | > 30 µM | > 30 µM | > 30 µM | > 30 µM | > 30 µM | > 30 µM | > 30 µM | > 30 µM | > 30 µM
12 | C=C1c2cccc(O)c2C(=O)C2=C(O)[C@]3(O)C(=O)C(C(N)=O)=C(O)[C@@H](N(C)C)[C@@H]3[C@@H](O)[C@H]12 [METHACYCLINE] | > 30 µM | > 30 µM | > 30 µM | > 30 µM | > 10 µM | > 10 µM | > 10 µM | > 30 µM | –
13 | O=C1c2cccc3c2[C@H](CCC3)CN1[C@@H]1CN2CCC1CC2 [PALONOSETRON] | > 30 µM | > 30 µM | > 30 µM | > 30 µM | > 30 µM | 4 µM | > 30 µM | > 30 µM | > 30 µM
14 | OC[C@H]1O[C@@H](n2cnc3c2NC=NC[C@H]3O)C[C@@H]1O [PENTOSTATIN] | > 30 µM | > 30 µM | > 30 µM | – | > 30 µM | > 30 µM | > 30 µM | > 10 µM | > 30 µM
15 | Cc1cccc(C)c1NC(=O)CC12CCCN1CCC2 [PILSICAINIDE] | > 30 µM | > 30 µM | > 30 µM | > 30 µM | > 30 µM | > 30 µM | > 30 µM | > 30 µM | > 30 µM
16 | CN[C@@H](C)[C@@H](O)c1ccccc1 [PSEUDOEPHEDRINE] | > 30 µM | > 10 µM | > 30 µM | > 30 µM | > 10 µM | 13 µM | > 10 µM | > 30 µM | > 30 µM
17 | CCCN1CC(NS(=O)(=O)N(CC)CC)CC2Cc3c(O)cccc3CC21 (centres undefined) [QUINAGOLIDE] | > 30 µM | > 30 µM | > 30 µM | > 30 µM | 11 µM | 11 µM | > 30 µM | > 30 µM | > 30 µM
18 | O=C1OC(OC(=O)c2cccnc2Nc2cccc(C(F)(F)F)c2)c2ccccc21 (centres undefined) [TALNIFLUMATE] | > 30 µM | > 30 µM | > 30 µM | > 30 µM | > 30 µM | > 30 µM | > 30 µM | > 30 µM | > 30 µM
19 | C[C@]12C=CC(=O)C=C1CC[C@@H]1[C@@H]2CC[C@]2(C)OC(=O)CC[C@@H]12 [TESTOLACTONE] | > 10 µM | > 10 µM | > 30 µM | > 10 µM | > 10 µM | > 10 µM | > 10 µM | > 30 µM | > 30 µM
20 | CCOC(=O)c1c(CSc2ccccc2)n(C)c2cc(Br)c(O)c(CN(C)C)c12 [UMIFENOVIR] | > 30 µM | 3.7 µM | > 30 µM | > 30 µM | 26 µM | 12 µM | > 30 µM | 2.6 µM | > 30 µM
